Results from PubChem BioAssay (NCI).
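Compound exposure: 48 hours, 5 concentrations, 96-well plates. TGI: concentration producing complete growth inhibition.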

What was measured:
Test in all cases: NCI-60 cell line screen, 48 h
DMS 114 small cell lung = tested on: DMS 114 small cell lung
DMS 273 small cell lung = tested on: DMS 273 small cell lung
HOP-18 NSCLC = tested on: HOP-18 NSCLC
KM12 colon = tested on: KM12 colon
LXFL 529 NSCLC = tested on: LXFL 529 NSCLC
M19-MEL melanoma = tested on: M19-MEL melanoma
NCI-H522 lung = tested on: NCI-H522 lung
RXF 393 renal = tested on: RXF 393 renal
SNB-78 CNS = tested on: SNB-78 CNS
XF 498 CNS = tested on: XF 498 CNS
RXF-631 renal = tested on: RXF-631 renal

Row | SMILES | TGI (DMS 114 small cell lung) [µM] | TGI (DMS 273 small cell lung) [µM] | TGI (HOP-18 NSCLC) [µM] | TGI (KM12 colon) [µM] | TGI (LXFL 529 NSCLC) [µM] | TGI (M19-MEL melanoma) [µM] | TGI (NCI-H522 lung) [µM] | TGI (RXF 393 renal) [µM] | TGI (SNB-78 CNS) [µM] | TGI (XF 498 CNS) [µM] | TGI (RXF-631 renal) [µM]
1 | O=C(Cc1c(C(=O)Nc2ccccc2)sc(C(=O)Nc2ccccc2)c1CC(=O)Nc1ccccc1)Nc1ccccc1 | > 100 | > 100 | > 100 | > 100 | > 100 | > 100 | > 100 | > 100 | > 100 | > 100 | 
2 | COC1OC(CO)C(O)C(NC(=O)N(C)N=O)C1O (stereo unspecified) | > 100 | > 100 | > 100 | > 100 | > 100 | > 100 | > 100 | > 100 | > 100 | > 100 | 
3 | Cc1ccc(NC(=O)CC2SC(=Nc3cccc(Cl)c3C)NC2=O)cc1 (stereo unspecified) | 96.6 | > 100 |  | > 100 | > 100 | > 100 |  |  | > 100 | > 100 | > 100
4 | Cc1cc2c(=O)cc(-c3ccc(Cl)cc3Cl)oc2c(C(=O)O)c1C | > 100 |  | > 100 | > 100 | > 100 |  | > 100 | > 100 | > 100 | > 100 | 
5 | CC[C@H]1[C@@H](C)C=C[C@@H](C)N1S(=O)(=O)c1ccc(C)cc1 | 34.9 | > 100 |  | > 100 | > 100 | > 100 | > 100 | > 100 | > 100 | 42.4 | 30.4
6 | O=C1C2=C(c3ccccc31)C(c1ccccc1Cl)NC(=S)N2 (stereo unspecified) |  | > 100 |  | > 100 | > 100 | > 100 | > 100 |  |  | > 100 | 
7 | O=C(O)COc1ccc2c3c1C(=O)CCC3CO2 (stereo unspecified) | > 100 | > 100 | > 100 | > 100 | > 100 | > 100 | > 100 |  | > 100 | > 100 | 
8 | OCC(O)COc1ccc(F)cc1 (stereo unspecified) | > 100 | > 100 | > 100 | > 100 | > 100 | > 100 | > 100 | > 100 | > 100 | > 100 | 
9 | C=CCC1=C2CCCCC2CCC1=O (stereo unspecified) | > 100 | > 100 |  | > 100 | > 100 | > 100 | > 100 | > 100 | > 100 | > 100 | > 100
